Experimental data as given in patent US10155768B2, “Fused pyrimidine compound or salt thereof” (TAIHO PHARMACEUTICAL CO., LTD., priority 2016, dated 2018).

How the values were obtained:
[1] = test system: TT cells (a human thyroid cancer cell line with RET activating mutation (C634W)); test: Cell growth inhibitory effect (1), TT cells; format: cell-based; conditions: 168 h, read-out: TT Cell GI50 (nM)
Experimental: An in vitro cytotoxicity test was performed on TT cells (a human thyroid cancer cell line with RET activating mutation (C634W)).
(§1) After shaking, each culture was allowed to stand at room temperature for 15 minutes, and the chemiluminescence was measured with a luminometer to use it as an index of the number of viable cells.
C: The absorbance of the well to which a test compound was not added. Day 1: The day on which a test compound was added. Day 8: The day on which evaluation was performed.

[2] = test system: LC-2/ad cells (a human lung adenocarcinoma cell line with CCDC6-RET fusion gene); test: Cell growth inhibitory effect (2), LC-2/ad cells; format: cell-based; conditions: 168 h, read-out: LC-2/ad Cell GI50
Experimental: An in vitro cytotoxicity test was performed on LC-2/ad cells (a human lung adenocarcinoma cell line with CCDC6-RET fusion gene).
as §1

[3] = test system: TT cells (human thyroid cancer cell line with RET activating mutation); test: In vivo antitumor effect, mice subcutaneously implanted with TT cells; parameters: species or system BALB/cA Jcl-nu/nu male mice; conditions: 100 mg/kg/day oral, 14 days
Experimental: Human thyroid cancer cell lines (TT) were subcutaneously implanted into the right frank of 6- to 7-week-old BALB/cA Jcl-nu/nu male mice. After about 2 to 3 weeks from the cell implantation, the length (nm) and the width (mm) of tumors found in mouse bodies were measured. […] The day on which the mice were divided into groups was determined to be the “grouping day” (day 0 or 1).
A control group was administered a solvent (0.5% HPMC/0.1N HCl).
To determine the index of the antitumor effect, TV of each drug-administrated group was measured on day 15, and the tumor volume on day 15 relative to the tumor volume on the grouping day (day 0 or 1) (relative tumor volume: RTV) and T/C (%) were calculated from the following equations, and the antitumor effect was evaluated. […] TV(mm^3)=(length×width^2)/2 RTV=(TV on day 15)/(TV on day 0 or day 1) T/C(%)=(the mean RTV of a test compound treatment group)/(the mean RTV of the control group)×100

[4] = mouse, microsomes, 0.5 h

COCc1ccc(NC(=O)c2c(C#CCN3CCOCC3)n(C3(C)CC3)c3ncnc(N)c23)cc1 [Example 85, 4-amino-N-[4-(methoxymethyl)phenyl]-7-(1-methylcyclopropyl)-6-(3-morpholinoprop-1-yn-1-yl)-7H-pyrrolo[2,3-d]pyrimidine-5-carboxamide]
GI50 [1]: 10 nM
GI50 [2]: 17.7 nM
T/C (%) ([3]; day 15): 23%
TV (mm^3) Day 15 Mean ± SE ([3]; day 15): 139.42 ± 10.17 mm^3
RTV Day 15 Mean ± SE ([3]; day 15 relative to day 0): 0.87 ± 0.13
Remaining (%) [4]: 79%
